Measured values as given in ChEMBL document CHEMBL1201862, “PubChem BioAssay data set” (2004).
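The compound was tested at five concentrations on cells cultured in 96-well plates, with a 48-hour exposure period. The concentration for 50% growth inhibition is given as GI50.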 Active and inactive are the calls of the source. Cut-off read from the data, not from the text of the source: active = GI50 up to about 1.1 µM and inactive = higher.

Key:
Assay in all cases: inhibition of tumour cell growth, NCI panel, 48 h
[1] = system: 786-0
[2] = system: CAKI-1
[3] = system: CCRF-CEM
[4] = system: COLO 205
[5] = system: DLD-1
[6] = system: DMS-114
[7] = system: DMS-273
[8] = system: HCC 2998
[9] = system: HCT-116
[10] = system: HL-60
[11] = system: HOP-62
[12] = system: HOP-92
[13] = system: IGROV-1
[14] = system: K562
[15] = system: LXFL 529
[16] = system: M14
[17] = system: M19-MEL
[18] = system: MOLT-4
[19] = system: Malme-3M
[20] = system: NCI-H226
[21] = system: NCI-H23
[22] = system: NCI-H522
[23] = system: OVCAR-4
[24] = system: RPMI-8226
[25] = system: SF-268
[26] = system: SF-539
[27] = system: SK-MEL-28
[28] = system: SK-MEL-2
[29] = system: SK-OV-3
[30] = system: SNB-75
[31] = system: SNB-78
[32] = system: SR
[33] = system: UACC-62
[34] = system: UO-31
[35] = system: A498
[36] = system: A549
[37] = system: ACHN
[38] = system: BT-549
[39] = system: DU-145
[40] = system: EKVX
[41] = system: HCT-15
[42] = system: HT-29
[43] = system: Hs-578T
[44] = system: KM12
[45] = system: LOX IMVI
[46] = system: MCF7
[47] = system: MDA-MB-231
[48] = system: MDA-MB-435
[49] = system: MDA-N
[50] = system: NCI-H460
[51] = system: NCI/ADR-RES
[52] = system: OVCAR-3
[53] = system: OVCAR-5
[54] = system: OVCAR-8
[55] = system: PC-3
[56] = system: RXF 393
[57] = system: SF-295
[58] = system: SK-MEL-5
[59] = system: SN12C
[60] = system: SNB-19
[61] = system: SW-620
[62] = system: T47D
[63] = system: TK-10
[64] = system: U-251
[65] = system: UACC-257

Cc1c2cc(Cl)ccc2n2c(=O)c3ccccc3[nH]c(=O)c12
GI50 [1]: 41.5 µM (inactive) | GI50 [2]: > 100 µM (inactive) | GI50 [3]: 36.1 µM (inactive) | GI50 [4]: > 100 µM (inactive) | GI50 [5]: > 100 µM (inactive) | GI50 [6]: > 100 µM (inactive) | GI50 [7]: > 100 µM (inactive) | GI50 [8]: > 100 µM (inactive) | GI50 [9]: 69.2 µM (inactive) | GI50 [10]: > 10 µM (inactive) | GI50 [11]: 31.2 µM (inactive) | GI50 [12]: > 100 µM (inactive) | GI50 [13]: > 100 µM (inactive) | GI50 [14]: 50.1 µM (inactive) | GI50 [15]: > 100 µM (inactive) | GI50 [16]: > 100 µM (inactive) | GI50 [17]: > 100 µM (inactive) | GI50 [18]: 42.9 µM (inactive) | GI50 [19]: > 100 µM (inactive) | GI50 [20]: > 100 µM (inactive) | GI50 [21]: > 100 µM (inactive) | GI50 [22]: > 100 µM (inactive) | GI50 [23]: 49.8 µM (inactive) | GI50 [24]: > 100 µM (inactive) | GI50 [25]: > 100 µM (inactive) | GI50 [26]: 78.2 µM (inactive) | GI50 [27]: > 100 µM (inactive) | GI50 [28]: > 100 µM (inactive) | GI50 [29]: > 100 µM (inactive) | GI50 [30]: 59.6 µM (inactive) | GI50 [31]: > 100 µM (inactive) | GI50 [32]: 45.3 µM (inactive) | GI50 [33]: > 100 µM (inactive) | GI50 [34]: > 100 µM (inactive)

Oc1ccccc1/C=N/c1nc2cc3sc(/N=C/c4ccccc4O)nc3cc2s1
GI50 [1]: > 81.1 µM (inactive) | GI50 [35]: 26.3 µM (inactive) | GI50 [36]: 6.98 µM (inactive) | GI50 [37]: 46.3 µM (inactive) | GI50 [38]: > 61.8 µM (inactive) | GI50 [2]: 37.2 µM (inactive) | GI50 [3]: 4.74 µM (inactive) | GI50 [4]: 3.3 µM (inactive) | GI50 [39]: > 48.6 µM (inactive) | GI50 [40]: 51.4 µM (inactive) | GI50 [8]: > 100 µM (inactive) | GI50 [9]: 38.9 µM (inactive) | GI50 [41]: 19.2 µM | GI50 [10]: 4.44 µM (inactive) | GI50 [11]: > 80.4 µM (inactive) | GI50 [12]: > 100 µM (inactive) | GI50 [42]: 26.2 µM (inactive) | GI50 [43]: 21.5 µM (inactive) | GI50 [13]: 60 µM (inactive) | GI50 [14]: 67.3 µM (inactive) | GI50 [44]: > 66.8 µM (inactive) | GI50 [45]: 34.2 µM (inactive) | GI50 [16]: 97.1 µM (inactive) | GI50 [46]: 12.5 µM (inactive) | GI50 [47]: > 100 µM (inactive) | GI50 [48]: > 95.9 µM (inactive) | GI50 [49]: > 100 µM (inactive) | GI50 [18]: 0.889 µM (active) | GI50 [19]: > 100 µM (inactive) | GI50 [20]: 26.4 µM (inactive) | GI50 [21]: 6.21 µM (inactive) | GI50 [50]: 4.61 µM (inactive) | GI50 [22]: 9.77 µM (inactive) | GI50 [51]: > 100 µM (inactive) | GI50 [52]: > 100 µM (inactive) | GI50 [23]: 69.7 µM (inactive) | GI50 [53]: > 64.7 µM (inactive) | GI50 [54]: > 100 µM (inactive) | GI50 [55]: > 89.3 µM (inactive) | GI50 [24]: > 35.3 µM (inactive) | GI50 [56]: > 32.7 µM (inactive) | GI50 [25]: 50.9 µM (inactive) | GI50 [57]: > 54.3 µM (inactive) | GI50 [26]: > 85.5 µM (inactive) | GI50 [27]: > 100 µM (inactive) | GI50 [28]: > 100 µM (inactive) | GI50 [58]: > 47.9 µM (inactive) | GI50 [29]: > 89.3 µM (inactive) | GI50 [59]: > 60.5 µM (inactive) | GI50 [60]: > 100 µM (inactive) | GI50 [30]: > 78 µM (inactive) | GI50 [32]: 2.63 µM (inactive) | GI50 [61]: 20.7 µM (inactive) | GI50 [62]: > 61.1 µM (inactive) | GI50 [63]: > 86.9 µM (inactive) | GI50 [64]: > 70.5 µM (inactive) | GI50 [65]: > 100 µM (inactive) | GI50 [33]: > 100 µM (inactive) | GI50 [34]: > 35.9 µM (inactive)
